Measurements taken from PMC5625151 (Pharmacology Research & Perspectives, 2017).
“Also recorded” adds a separate entry of the source.

Legend:
PC12 cells = test: PC12 toxicity assay; assay type: cell-based; conditions: 100 μmol/L, 72 h, absence of NGF
[1] = test system: NGF-dependent PC12 cell differentiation; test: PC12 NGF-dependent neurite outgrowth; assay type: cell-based; conditions: 500 pM NGF; for IC50: read-out: IC50 PC12 neurite outgrowth, 72 h, 100 μmol/L to 31.6 nmol/L, n = 3
immobilized TrkA = immobilized TrkA (Homo sapiens, UniProt P04629); test: SPR binding to immobilized TrkA
Sequence of immobilized TrkA (P04629 33-796): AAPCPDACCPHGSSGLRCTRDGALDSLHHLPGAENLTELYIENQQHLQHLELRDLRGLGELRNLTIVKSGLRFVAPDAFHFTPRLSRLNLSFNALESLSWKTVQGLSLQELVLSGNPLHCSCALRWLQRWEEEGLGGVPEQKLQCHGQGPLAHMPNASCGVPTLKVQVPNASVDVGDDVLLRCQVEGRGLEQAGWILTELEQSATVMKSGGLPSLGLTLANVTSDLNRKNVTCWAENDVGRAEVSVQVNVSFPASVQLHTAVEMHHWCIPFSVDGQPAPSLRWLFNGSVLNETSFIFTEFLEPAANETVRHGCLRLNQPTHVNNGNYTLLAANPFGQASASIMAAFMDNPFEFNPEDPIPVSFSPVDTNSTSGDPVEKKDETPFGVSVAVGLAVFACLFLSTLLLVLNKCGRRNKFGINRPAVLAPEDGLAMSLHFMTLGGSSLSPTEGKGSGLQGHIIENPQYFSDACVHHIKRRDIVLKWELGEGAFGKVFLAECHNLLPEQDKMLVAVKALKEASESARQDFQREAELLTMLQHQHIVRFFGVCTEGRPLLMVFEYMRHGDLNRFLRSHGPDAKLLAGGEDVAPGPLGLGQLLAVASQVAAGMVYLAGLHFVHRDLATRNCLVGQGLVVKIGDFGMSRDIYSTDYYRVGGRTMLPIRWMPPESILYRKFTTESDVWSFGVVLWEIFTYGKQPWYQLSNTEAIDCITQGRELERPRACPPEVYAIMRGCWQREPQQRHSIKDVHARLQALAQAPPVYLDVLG

Mouse NGF = Mouse NGF (Mus musculus, UniProt P01139); test: SPR binding affinity of analogs to immobilized NGF; conditions: read-out: KD, binding affinity to immobilized NGF, two-site steady-state analysis, 0.70-200 μmol/L, 25 °C, mean of triplicate
Sequence of Mouse NGF (P01139 122-241): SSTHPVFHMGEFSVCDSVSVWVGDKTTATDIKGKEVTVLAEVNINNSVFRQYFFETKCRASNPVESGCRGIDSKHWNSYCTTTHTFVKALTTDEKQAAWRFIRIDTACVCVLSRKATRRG

Structure (SMILES)	PC12 cell count and morphology versus control (PC12 cells)	NGF-mediated PC12 cell process formation ([1]; increasing concentrations 0-100 μmol/L)	binding to immobilized TrkA (immobilized TrkA)	Kd (Mouse NGF)	IC50 [1]
O=C(O)c1ccc(Cl)c(N2C(=O)c3ccc4c(=O)n5c6ccc([N+](=O)[O-])cc6nc5c5ccc(c3c45)C2=O)c1 [BVNP‐0197, 4‐Chloro‐3‐{6‐nitro‐11,16,18‐trioxo‐3,10,17‐triazahexacyclo[13.6.2.0^2,^10.0^4,^9.0^12,^22.0^19,^23]tricosa‐1(21),2,4,6,8,12,14,19,22‐nonaen‐17‐yl}benzoic acid]	did not significantly differ from untreated cells	significantly decreased	–	–	–
Cn1c2ccc(NC(=O)c3ccccc3)cc2c(=O)n2nc(C(=O)O)cc12 [PD 90780, 7‐(benzolylamino)‐4,9‐dihydro‐4‐methyl‐9‐oxo‐pyrazolo[5,1‐b]quinazoline‐2‐carboxylic acid]	–	–	none showed binding; also recorded: do not bind to TrkA	35.8 µM	33.2 µM
Cc1cc2nc3c(=O)[nH]c(=O)nc-3n(C)c2cc1C=O [Ro 08‐2750]	–	–	none showed binding; also recorded: do not bind to TrkA	32.4 µM	12 µM
